Reference: paper PMC8662641, “Site-Specific Labeling of Endogenous Proteins Using CoLDR Chemistry” (Journal of the American Chemical Society, 2021)
Like-named read-outs stand apart in the source and are kept apart here. Each block holds one compound with its values, some of them ahead of it.

Assays:
BTK kinase domain = BTK kinase domain (Homo sapiens, UniProt Q06187); assay: Labeling of recombinant BTK by intact protein LC/MS; type: binding; set-up: BTK kinase domain was expressed and purified as previously reported; made in house; settings: BTK 2 μM, 2a 2 μM, 10 min, 25 °C, pH 8
Chain of BTK kinase domain (Q06187 402-655 limits assumed): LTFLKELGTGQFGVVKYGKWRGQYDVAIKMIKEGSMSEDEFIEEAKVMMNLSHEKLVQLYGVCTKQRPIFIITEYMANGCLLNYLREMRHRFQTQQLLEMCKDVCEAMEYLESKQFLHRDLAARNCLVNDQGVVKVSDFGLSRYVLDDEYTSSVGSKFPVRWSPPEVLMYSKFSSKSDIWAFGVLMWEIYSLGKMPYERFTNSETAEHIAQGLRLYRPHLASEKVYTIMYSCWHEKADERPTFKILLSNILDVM

BTK [1] = biological target: T1, BTK (Homo sapiens, UniProt Q06187); assay: Degradation of BTK by a CoLDR PROTAC in Mino cells; type: cell-based; set-up: We incubated Mino B cells with probes containing different tags; endogenous in cells; host or cells: Mino cells; settings: for DC50: Mino cells, 24 h, Western blot
Target sequence in this assay (Q06187 whole entry): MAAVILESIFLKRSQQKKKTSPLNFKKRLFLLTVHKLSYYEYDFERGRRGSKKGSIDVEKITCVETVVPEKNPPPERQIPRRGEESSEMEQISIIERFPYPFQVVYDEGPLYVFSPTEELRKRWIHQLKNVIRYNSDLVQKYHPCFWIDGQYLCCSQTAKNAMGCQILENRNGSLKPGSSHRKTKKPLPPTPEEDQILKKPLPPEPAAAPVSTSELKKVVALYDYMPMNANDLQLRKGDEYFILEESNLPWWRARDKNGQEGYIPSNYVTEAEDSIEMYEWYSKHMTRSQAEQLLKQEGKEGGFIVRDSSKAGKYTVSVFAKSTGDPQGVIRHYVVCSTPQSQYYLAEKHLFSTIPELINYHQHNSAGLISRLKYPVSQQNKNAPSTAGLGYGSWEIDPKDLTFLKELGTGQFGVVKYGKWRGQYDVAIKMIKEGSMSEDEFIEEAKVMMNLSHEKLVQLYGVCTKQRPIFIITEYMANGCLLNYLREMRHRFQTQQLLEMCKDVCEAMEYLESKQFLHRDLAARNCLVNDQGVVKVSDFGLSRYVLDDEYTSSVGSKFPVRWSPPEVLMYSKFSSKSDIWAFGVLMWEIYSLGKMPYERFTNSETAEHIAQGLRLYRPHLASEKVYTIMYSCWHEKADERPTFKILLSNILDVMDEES

Aurora A = test system: Aurora A; set-up: method as in selleck (supplier comment); settings: ref selleck (supplier comment); cited from earlier work
BTK [2] = biological target: T1, BTK; set-up: BTK kinase domain was expressed and purified as previously reported; made in house; method as in Reddi et al., J. Am. Chem. Soc. 2021, 143 (13), 4979–4992; settings: ref Reddi et al., J. Am. Chem. Soc. 2021, 143 (13), 4979–4992; cited from earlier work
Target sequence in this assay (Q06187 402-655 limits assumed): as the sequence (Q06187 402-655 limits assumed) above

BTK-1h = biological target: T2, BTK-1h (Homo sapiens, UniProt Q06187); assay: High-throughput screening with 1h-labeled BTK; type: binding
T2 construct: The BTK kinase domain was diluted to 2 μM in the buffer, and 2 μM 1h was added; made in house
T2 sequence (Q06187 402-655): as the sequence (Q06187 402-655 limits assumed) above
Description: The collection was composed of BTK binding compounds obtained in our previous luminescence screen[37] (Data set S2). […] The resulting BTK-1h (50 μL) was added to the inhibitors.

[3] = biological target: ubiquitin C-terminal hydrolase L3; set-up: method as in selleck (supplier comment); settings: ref selleck (supplier comment); cited from earlier work
GSH reactivity assay = type: physicochemical; settings: for half-life at 100 μM: 5 mM GSH in potassium phosphate buffer/DMF, pH 8, read-out: GSH t1/2
Description: A 100 μM (0.5 μL of a 20 mM stock) sample of the electrophile (1a–1m) was incubated with 5 mM GSH (5 μL of a 100 mM stock, freshly dissolved), 5 mM NaOH (to counter the acidity imparted by GSH), and 100 μM 4-nitrocyanobenzene (0.5 μL of a 20 mM stock solution) as an internal standard in 100 mM potassium phosphate buffer pH 8.0 and DMF at a ratio of 9:1, respectively. All solvents were bubbled with argon. Reaction mixtures were kept at 14 °C. Every 1 h 5 μL from the reaction mixture was injected into the LC/MS. The reaction was followed by the peak area of the electrophile normalized by the area of the 4-nitrocyanobenzene (i.e., by the disappearance of the starting material). The natural logarithm of the results was fitted to linear regression, and t1/2 was calculated as t1/2 = ln 2/–slope.

BTK [4] = biological target: T1, BTK; assay: In-gel fluorescence labeling profile in Mino cells; settings: for labeling of BTK in live Mino cells: 2 h incubation, in-gel fluorescence
Target sequence in this assay (Q06187 whole entry): as the sequence (Q06187 whole entry) above

Buffer stability assay = type: physicochemical
Description: A sample of 100 μM of the electrophile (1a–1p) was incubated with 100 μM 4-nitrocyanobenzene as an internal standard in a 100 mM potassium phosphate buffer of pH 8.0. All solvents were bubbled with argon. Reaction mixtures were kept at 37 °C with shaking. After 4 days (unless otherwise mentioned), 5 μL from the reaction mixture was injected into the LC/MS to check the stability of the compounds.

primary mouse B cells = assay: B-cell response experiment (CD86 after anti-IgM); type: cell-based; settings: 24 h treatment, 1–1000 nM
Description: Splenic cells from C57BL/6 mice were isolated by forcing spleen tissue through the mesh into PBS containing 2% fetal calf serum and 1 mM EDTA, and red blood cells were depleted by lysis buffer. […] Following a 24 h incubation, cells were stimulated with anti-IgM overnight (5 μg/mL, Sigma-Aldrich). […] Single-cell suspensions were analyzed by a flow cytometer (CytoFlex, Beckman Coulter).

BTK [5] = biological target: T1, BTK; assay: BTK activity in Mino cells (autophosphorylation); type: cell-based; set-up: We incubated Mino B cells with probes containing different tags; endogenous in cells; host or cells: Mino cells; settings: Mino cells, 1 h; 100 nM probes, 1 μM ibrutinib or Ibr-H
Description: The cells were harvested, and immunoblots of phospho-BTK, total-BTK, and β-actin were performed.
Cell pellets were washed with ice-cold PBS and lysed using RIPA buffer (Sigma, R0278). […] Samples containing 50 μg of total protein were prepared with 4× LDS sample buffer (NuPAGE, Thermo Fischer Scientific, NP0007) and were then resolved on a 4–20% Bis-Tris gel (GeneScript SurePAGE, M00657). […] The EZ-ECL kit (Biological Industries, 20-500-1000) was used to detect HRP activity.
Target sequence in this assay (Q06187 whole entry): as above

Mino cells = assay: Degradation proteomics (label-free quantitative proteomics); type: cell-based, human; settings: 1n 500 nM, 24 h
Description: A total of 1 × 10^6 Mino cells were treated in four replicates with either 1n (500 nM) or DMSO (0.1%) for 24 h. Cells were then harvested and washed with ice cold PBS. Samples were then centrifuged at 200 rcf, 4 °C for 5 min; then the supernatant was removed and the samples were frozen at −80 °C. Samples were dispersed in 75 μL of 50 mM ammonium bicarbonate and transferred to 1.8 mL glass vials. A 75 μL amount of 10% SDS in 50 mM ammonium bicarbonate was added, and the samples were heated to 96 °C for 6 min. The samples were sonicated thoroughly in a sonication bath until the DNA was sheared, as indicated by reduction in viscosity to a level enabling easy pipettation. Total protein concentration was estimated using the BCA assay, and 30 μg from each sample was taken for LC/MS/MS analysis. The detailed procedure is available in the Supplementary Methods Section.
Trypsin/P with a maximum number of missed cleavages of 2. Oxidation of methionine and N-terminal acetylation were included as variable modifications. The “Re-quantify” option was enabled. Carbamidomethyl (C2H3NO) was used as a fixed modification on cysteine.
Contaminants were included. Peptides were searched with a minimum peptide length of 7 and a maximum peptide mass of 6500 Da. “Second peptides” was enabled, “Dependent peptides” were disabled and the option “Match between run” was enabled with a Match time window of 0.7 min and an alignment window of 20 min. An FDR of 0.01 was used for Protein FDR, PSM FDR and XPSM FDR. Proteins were identified and quantified based on the label-free quantification (LFQ) (REF: www.mcponline.org/content/13/9/2513.short) values reported by MaxQuant. Following MaxQuant analysis, proteins identified only through razor peptides or modified peptides, as well as common contaminants, were removed, and only proteins that gave at least 3 non-zero LFQ intensity values in at least one of the data sets were retained for analysis. Missing values were then replaced from a normal distribution.
Degradation proteomics experiment (label free quantitative proteomics)
Sample preparation: 106 Mino cells were treated in four replicates with either compound or DMSO for 24 hours. Cells were then washed twice by centrifuge at 200 rcf, 4°C for 5 minutes, removing the supernatant and washed with ice cold PBS. Samples were then centrifuged at 200 rcf, 4°C for 5 minutes, then supernatant was removed and samples were frozen at -80°C. Samples were dispersed in 75 μl of 50 mM ammonium bicarbonate, and transferred to 1.8 mL glass vials.
75 μl of 10% SDS in 50 mM ammonium bicarbonate were added and the samples were heated to 96°C for 6 minutes. The samples were sonicated thoroughly in a sonication bath until the DNA was sheared as indicated by reduction in viscosity to level enabling easy pipettation. Total protein concentration was estimated using BCA assay and 30 µg from each sample was taken for the […]
The samples were reduced by the addition of 1/20 volume of 100 mM DTT and heating to 60°C for 45 minutes. The samples were cooled to room temperature, and 1/20 volume of 200 mM iodoacetamide was added and the reaction was performed in the dark for 30 minutes.
At this point, 1/10 volume of 12% phosphoric acid was added, followed by 6 volumes of 90% methanol in 50 mM ammonium bicarbonate. The samples were loaded on S-trap Micro columns (Protify), and washed 3 times with 90% methanol in 50 mM ammonium bicarbonate. The columns were spun without washing to dry the methanol. […]

[6] = Dataset S2A, 200 μM compound, BTK-1h, 32 °C, 10 min
[7] = phosphate buffer pH 8, 37 °C, in 2 days

SMILES: O=C1CCC(N2C(=O)c3cccc(O)c3C2=O)C(=O)N1 (stereo not drawn) [thalidomide-OH]
rescue of 1n-induced BTK degradation (BTK [1]; Mino cells pretreated 2 h before PROTAC 24 h): able to rescue the degradation

SMILES: Cc1cc(Nc2cc(N3CCN(C)CC3)nc(/C=C/c3ccccc3)n2)n[nH]1 [PCM-0095056-003, ENMD-2076]
IC50 (Aurora A): 14 nM
BTK Inhibition reported in luminescence assay* (BTK [2]): 91

SMILES: Cc1cc(Nc2cc(N3CCN(C)CC3)nc(/C=C/c3ccccc3)n2)n[nH]1.O=C(O)C(O)C(O)C(=O)O [ENMD-2076 L-(+)-Tartaric acid]
FI (650)/FI (620) (BTK-1h; Dataset S2C, BTK-1h with inhibitor): 1.943
selectivity for Aurora A over Aurora B (Aurora A): 25 fold

SMILES: C#CCCCCC(=O)NC1CCN(C(=O)C(=C)CN2CCC[C@@H](n3nc(-c4ccc(Oc5ccccc5)cc4)c4c(N)ncnc43)C2)CC1 [1d]
half-life at 100 μM (GSH reactivity assay; 100 μM compound): > 100 h
less reactive toward GSH than ibrutinib (GSH reactivity assay; 5 mM GSH, pH 8): > 20 fold
labeling of BTK in live Mino cells (BTK [4]): labeled BTK with more selectivity

SMILES: C=C(CN1CCC[C@@H](n2nc(-c3ccc(Oc4ccccc4)cc3)c3c(N)ncnc32)C1)C(=O)OCC [1a]
time to complete reaction with GSH (GSH reactivity assay; 100 μM compound, 5 mM GSH, pH 8, 14 °C): ≤ 10 min
half-life at 100 μM (GSH reactivity assay; 100 μM compound): < 0.167 h
hydrolysis/elimination (Buffer stability assay; PBS buffer pH 8, 37 °C, in two days): 100%
elimination (Buffer stability assay; [7]): 50%
hydrolysis (Buffer stability assay; [7]): 50%

The next lines start with results.

single labeling of target (BTK) (BTK kinase domain): 100%
SMILES: C#CCCNC(=O)C(=C)CN1CCC(CNc2ncnc(N)c2-c2ccc(Oc3ccccc3)cc2)CC1 [2a]

FI (650)/FI (620) (BTK-1h; [6]): 25.7359
FI (BTK-1h)/FI (BTK-1h+Inhibitor) at 620 nm (BTK-1h; [6]): 0.9352
FI (BTK-1h)/FI (BTK-1h+Inhibitor) at 620 nm (BTK-1h; Dataset S2B, 200 μM inhibitor added to BTK-1h (2 μm)): 25.7359
SMILES: O=C1CC(=O)c2c(Cl)c(Cl)c(Cl)c(Cl)c21 [PCM-0215201-001, TCID]
IC50 [3]: 600 nM
selectivity to L1 [3]: 125 fold
BTK Inhibition reported in luminescence assay* (BTK [2]): 79.5

labeling of BTK in live Mino cells (BTK [4]): labeled BTK at a concentration of 100 nM
time to robust labeling of BTK in cells (BTK [4]; Mino cells, 100 nM probe): 30 to 60 min
BTK autophosphorylation after anti-IgM (BTK [5]): did not affect the activity
SMILES: C=C(CN1CCC[C@@H](n2nc(-c3ccc(Oc4ccccc4)cc3)c3c(N)ncnc32)C1)C(=O)NCCNC(=O)CCC(=O)N1Cc2ccccc2C#Cc2ccccc21 [1f]
buffer stability (Buffer stability assay; phosphate buffer pH 8, 37 °C, 4 days): No further hydrolysis has been observed under these buffer conditions
B cell activation (CD86 expression) after anti-IgM (primary mouse B cells): did not inhibit the activation of B cells

water adduct formed (Buffer stability assay; PBS buffer pH 8, 37 °C): 15%
DC50 (BTK [1]; read-out: DC50): < 100 nM
DC50 (BTK [1]; read-out: DC50 according to the polynomial fit): 11.4 nM
SMILES: C=C(CN1CCC[C@@H](n2nc(-c3ccc(Oc4ccccc4)cc3)c3c(N)ncnc32)C1)C(=O)NCCOCCOCCOCCOCCNc1cccc2c1C(=O)N(C1CCC(=O)NC1=O)C2=O (stereo partly drawn) [1n]
Log2(DMSO/treated) (Mino cells; BTK_HUMAN): 4.3089
Log2(DMSO/treated) (Mino cells; EXOS4_HUMAN): 1.641
Log2(DMSO/treated) (Mino cells; H14_HUMAN;H11_HUMAN;H1T_HUMAN): 1.44
depletion of BTK (Mino cells; Mino cells): more than 16 fold
depletion of CSK (Mino cells; Mino cells): more than 50%
